Assay [1] has as its system isolated rabbit ear preparation. In words: Rabbit ear perfusion test (adrenaline-induced tone, perfusion pressure). How it is done:
Female New Zealand White rabbits (approximately 4kg) were anaesthetised with Sagatal ® (0.5ml/kg).
The central ear artery was cannulated using a 20 G catheter and the ear cut off at its base. Heparinised (5ml, 200 IU;ml) Krebs bicarbonate solution was perfused through the ear to expel the blood. The ear was placed in a warming jacket at 37°C and attached via the arterial catheter to the perfusion pump. Perfusion of the ear with aerated (95% 025% C02)Krebs bicarbonate solution at 37° C was commenced at a rate of 6.5ml/min using a Watson Marlow peristaltic pump. The perfusion pressure was monitored continuously using a pressure transducer (Type 4-327-1221, Consoliated Electrodynamics) coupled to a Devices Recorder.
Following an equilibration period of 15 minutes, increased tone was induced in the preparation by addition of adrenaline (1µg/ml) to the perfusion fluid.
After a stable tone was observed, various concentrations of test compounds were injected into the perfusion fluid and examined for their effect on the perfusion pressure. The effect of vehicle (0.2ml, 50% Krebs 50% ethanol) was also tested on the ear preparation.

Assay [2] deals with guinea-pig papillary muscle. In words: Electrophysiological test: action potential of guinea-pig papillary muscle (microelectrode technique). The note with it: for minimal effective concentration: Cavia porcellus; for TIME 1 (Shortest time needed to attain suppression) / TIME 2 (Shortest time needed for reversal of effect by washing out of compound): at the listed bath concentration; for DEGREE OF SUPPRESSION: suppression of action potential at the listed bath concentration. How it is done:
Electrophysiological studies were conducted on guinea-pig papillary muscle.
Using a microelectrode technique, action potentials were measured from guinea-pig papillary muscles. Action potentials were evoked by electrical stimulation (platinum electrode, Grass S88 stimulator, 1 Hz stimulation frequency; voltage, 10% above threshold). […] The preparations were electrically driven (pacing intervals 1 s, duration 2-5 ms). Slow (Ca2+ mediated) action potentials were evoked in a depolarizing solution (22 mmol/l K and 5 mmol/I Ca^2+) at 0,35 Hz stimulation frequency in order to ensure complete removal of inactivation of slow inward current.

Where [3] appears, read: Oryctolagus cuniculus, Table 5, dose 100 µg, read-out: Mean % change in perfusion pressure.
The mark [4] stands for this setting: Oryctolagus cuniculus, Table 5, dose 316 µg, read-out: Mean % change in perfusion pressure.
The mark [5] stands for this setting: Oryctolagus cuniculus, Table 5, dose 1000 µg, read-out: Mean % change in perfusion pressure.
Setting [6] is: Oryctolagus cuniculus, Table 5, dose 3160 µg, read-out: Mean % change in perfusion pressure.
Where [7] appears, read: read-out: BATH CONCENTRATION (Lowest concentration of the compound to induce suppression of action potential), Table 3, guinea-pig papillary muscle.
Where [8] appears, read: read-out: BATH CONCENTRATION (Lowest concentration of the compound to induce suppression of action potential), Table 4, racemates and optical isomers.

Read-outs that look alike come from different tables or passages of the source.

As to `CCNC12OC3C4C5CC(C6C5C3C61)C42` (racemic) [Compound 13, 8-Ethylamino-8,11-oxopentacyclo [5.4.0.0^2,6.0^3,10.0^5,9]undecane], the inhibition at 0.1 mg in assay [1] (setting [3]) was found to be 6%. Also, the inhibition at 0.316 mg in assay [1] (setting [4]) came to 7%. Besides, the inhibition at 1 mg in assay [1] (setting [5]) came to 5.5%. Moreover, the inhibition at 3.16 mg in assay [1] (setting [6]) is 11.5%. Moreover, the “Mean time taken to return to pre-dose volume” value (“Mean time taken to return” below) in assay [1] (Table 5, dose 3160 µg) is reported as 2.0 min.
In the case of `c1ccc(CCCNC23OC4C5C6CC(C7C6C4C72)C53)cc1` (racemic) [Compound 6, 8-(3-Phenylpropyl)-amino-8,11-oxopentacyclo [5.4.0.0^2,6.0^3,10.0^5,9] undecane], the minimal effective concentration in assay [2] (setting [7]) stood at 50 µM. Moreover, in assay [2] (Table 3), the “TIME 1 (Shortest time needed to attain suppression)” value was determined as 18 min, the “TIME 2 (Shortest time needed for reversal of effect by washing out of compound)” value was determined as 14 min and the “DEGREE OF SUPPRESSION” value is “complete”.
Regarding “1(or 7)-Methyl-8-methylamino-8,11-oxopentacyclo[5.4.0.0^2,6.0^3,10.0^5,9] undecane [Compound 7]”, in assay [2] (Table 3), the “TIME 1 (Shortest time needed to attain suppression)” value came out at 12 min and the “DEGREE OF SUPPRESSION” value is given as “very little”.
Take `COc1ccc(CCN(C)CCCC(C#N)(c2ccc(OC)c(OC)c2)C(C)C)cc1OC` (stereo not drawn) [Verapamil, reference compound]: in assay [2] (setting [7]), the minimal effective concentration came out at 40 µM. Further, in assay [2] (Table 3), the “TIME 1 (Shortest time needed to attain suppression)” value came out at 10 min, the “TIME 2 (Shortest time needed for reversal of effect by washing out of compound)” value stood at 15 min and the “DEGREE OF SUPPRESSION” value is listed as “complete”.
As for `CCCCNC12OC3C4C5CC(C6C5C3C61)C42` (racemic) [Compound 2, 8-η-Butylamino-8,11-oxopentacyclo[5.4.0.0^2,6 .0^3,10 .0^5,9]undecane], the minimal effective concentration in assay [2] (setting [7]) and in assay [2] (setting [8]) was 150 µM throughout. Further, the “TIME 1 (Shortest time needed to attain suppression)” value in assay [2] (Table 3) came out at 29 min; in assay [2] (Table 4), 25 min. Further, the “DEGREE OF SUPPRESSION” value in assay [2] (Table 3) is “very little”; in assay [2] (Table 4), “little”. The inhibition at 0.1 mg in assay [1] (setting [3]) came to 7.5%. For the same compound, the inhibition at 0.316 mg in assay [1] (setting [4]) worked out at 8%. The inhibition at 1 mg in assay [1] (setting [5]) was determined as 12%. For the same compound, the inhibition at 3.16 mg in assay [1] (setting [6]) was 26%. Further, the “Mean time taken to return” value in assay [1] (Table 5, dose 1000 µg) was determined as 5.5 min; in assay [1] (Table 5, dose 3160 µg), 5.75 min.
With `CCCCNC12OC3C4C5CC(C6C5C3C61)C42` (single isomer, unassigned) [(+) -2, 8-η -butylamino-8,11-oxopentacyclo [5.4.0.0^2,6.0^3,10.0^5,9] undecane], in assay [2] (Table 4), the “TIME 1 (Shortest time needed to attain suppression)” value was 25 min and the “DEGREE OF SUPPRESSION” value is “very little”.
For the compound `c1ccc(CNC23OC4C5C6CC(C7C6C4C72)C53)cc1` (single isomer, unassigned) [(+) -4, 8-benzylamino-8,11-oxopentacyclo [5.4.0.0^2,6.0^3,10.0^5,9]undecane], in assay [2] (Table 4), the “TIME 1 (Shortest time needed to attain suppression)” value came out at 20 min, the “TIME 2 (Shortest time needed for reversal of effect by washing out of compound)” value is 15 min and the “DEGREE OF SUPPRESSION” value was “complete”.
Regarding `c1ccc(CNC23OC4C5C6CC(C7C6C4C72)C53)cc1` (single isomer, unassigned) [(-) -4, 8-benzylamino-8,11-oxopentacyclo [5.4.0.0^2,6.0^3,10.0^5,9]undecane], the minimal effective concentration in assay [2] (setting [8]) is 56.6 µM. Moreover, in assay [2] (Table 4), the “TIME 1 (Shortest time needed to attain suppression)” value amounted to 10 min, the “TIME 2 (Shortest time needed for reversal of effect by washing out of compound)” value is 5 min and the “DEGREE OF SUPPRESSION” value is reported as “complete”.
Regarding `CCCCCCCCNC12OC3C4C5CC(C6C5C3C61)C42` (single isomer, unassigned) [(+) -3, 8-η -octylamino-8,11-oxopentacyclo [5.4.0.0^2,6.0^3,10.0^5,9]undecane], in assay [2] (Table 4), the “TIME 1 (Shortest time needed to attain suppression)” value amounted to 30 min, the “TIME 2 (Shortest time needed for reversal of effect by washing out of compound)” value came out at 11 min and the “DEGREE OF SUPPRESSION” value is “incomplete”.
In the case of “1(or7)-Methyl-8-(2-phenylethyl)-amino-8,11-oxopentacyclo [5.4.0.0^2,6.0^3,1.0^5,9 ]undecane [Compound 11]”, in assay [2] (Table 3), the “TIME 1 (Shortest time needed to attain suppression)” value came out at 32 min, the “TIME 2 (Shortest time needed for reversal of effect by washing out of compound)” value amounted to 35 min and the “DEGREE OF SUPPRESSION” value is reported as “partial”.
For `CCCCNC12OC3C4C5CC(C6C5C3C61)C42` (single isomer, unassigned) [(-) -2, 8-η -butylamino-8,11-oxopentacyclo [5.4.0.0^2,6.0^3,10.0^5,9] undecane], the minimal effective concentration in assay [2] (setting [8]) was 130 µM. In addition, in assay [2] (Table 4), the “TIME 1 (Shortest time needed to attain suppression)” value was 25 min and the “DEGREE OF SUPPRESSION” value is recorded as “little”.
With “1(or7)-Methyl-8-benzylamino-8,11-oxopentacyclo [5.4.0.0^2,6.0^3,10.0^5,9 ]undecane [Compound 10]”, in assay [2] (Table 3), the “TIME 1 (Shortest time needed to attain suppression)” value was 20 min, the “TIME 2 (Shortest time needed for reversal of effect by washing out of compound)” value came to 10 min and the “DEGREE OF SUPPRESSION” value is recorded as “complete”.
For the compound `CNC12OC3C4C5CC(C6C5C3C61)C42` (racemic) [Compound 1, 8-Methylamino-8,11-oxopentacyclo[5.4.0.0^2,6 .0^3,10 .0^5,9]-undecane], the minimal effective concentration in assay [2] (setting [7]) stood at 120 µM. Also, in assay [2] (Table 3), the “TIME 1 (Shortest time needed to attain suppression)” value came out at 25 min and the “DEGREE OF SUPPRESSION” value is given as “very little”.
In the case of `CCCCCCCCNC12OC3C4C5CC(C6C5C3C61)C42` (single isomer, unassigned) [(-) -3, 8-η -octylamino-8,11-oxopentacyclo [5.4.0.0^2,6.0^3,10.0^5,9]undecane], in assay [2] (Table 4), the “TIME 1 (Shortest time needed to attain suppression)” value worked out at 10 min, the “TIME 2 (Shortest time needed for reversal of effect by washing out of compound)” value came to 7 min and the “DEGREE OF SUPPRESSION” value was “complete”.
Take `c1ccc(CNC23OC4C5C6CC(C7C6C4C72)C53)cc1` (racemic) [Compound 4, 8-Benzylamino-8,11-oxopentacyclo[5.4.0.0^2,6 .0^3,10 .0^5,9]undecane]: the minimal effective concentration in assay [2] (setting [7]) worked out at 20 µM. Further, in assay [2] (setting [8]), the minimal effective concentration turned out to be 20 µM. In assay [2] (Table 3), the “TIME 1 (Shortest time needed to attain suppression)” value turned out to be 15 min, the “TIME 2 (Shortest time needed for reversal of effect by washing out of compound)” value is 10 min and the “DEGREE OF SUPPRESSION” value is “complete”. In assay [2] (Table 4), the “TIME 1 (Shortest time needed to attain suppression)” value turned out to be 15 min, the “TIME 2 (Shortest time needed for reversal of effect by washing out of compound)” value came to 10 min and the “DEGREE OF SUPPRESSION” value is on record as “complete”.
With `CC(C)CNC12OC3C4C5CC(C6C5C3C61)C42` (racemic) [Compound 15, 8-Isobutylamino-8,11-oxopentacyclo [5.4.0.0^2,60^3,10.0^5,9]-undecane], the inhibition at 0.1 mg in assay [1] (setting [3]) turned out to be 6.5%. Also, the inhibition at 0.316 mg in assay [1] (setting [4]) is 8.5%. Moreover, in assay [1] (setting [5]), the inhibition at 1 mg came to 7%. The inhibition at 3.16 mg in assay [1] (setting [6]) came to 21%. Moreover, the “Mean time taken to return” value in assay [1] (Table 5, dose 3160 µg) was 2.5 min.
`CCCCCCCCCCCCNC12OC3C4C5CC(C6C5C3C61)C42` (racemic) [Compound 14, 8-η -Dodecylamino-8,11-oxopentacyclo [5.4.0.0^2,6.0^3,10.0^5,9]undecane]: the inhibition at 0.0316 mg in assay [1] (Oryctolagus cuniculus, Table 7, dose 31.6 μg, read-out: Mean % change in perfusion pressure) was found to be 6.1%. For the same compound, the inhibition at 0.1 mg in assay [1] (Oryctolagus cuniculus, Table 7, dose 100 μg, read-out: Mean % change in perfusion pressure) came to 12.4%. For the same compound, the inhibition at 0.316 mg in assay [1] (Oryctolagus cuniculus, Table 7, dose 316 μg, read-out: Mean % change in perfusion pressure) worked out at 8.7%. For the same compound, the inhibition at 1 mg in assay [1] (Oryctolagus cuniculus, Table 7, dose 1000 μg, read-out: Mean % change in perfusion pressure) was 6.6%. Further, the inhibition at 3.16 mg in assay [1] (Oryctolagus cuniculus, Table 7, dose 3160 μg, read-out: Mean % change in perfusion pressure) came to 7.7%.
As to “1(or7)-Methyl-8-η-butylamino-8,11-oxopentacyclo[5.4.0.0^2,6.0^3,10.0^5,9]undecane [Compound 8]”, in assay [2] (Table 3), the “TIME 1 (Shortest time needed to attain suppression)” value came out at 22 min, the “TIME 2 (Shortest time needed for reversal of effect by washing out of compound)” value was 6 min and the “DEGREE OF SUPPRESSION” value is given as “complete”.
As to “1 (or7)-Methyl-8-(3-phenylpropyl)-amino-8,11-oxopentacyclo[5.4.0.0^2,6.0^3,10.0^5,9 ]undecane [Compound 12]”, in assay [2] (Table 3), the “TIME 1 (Shortest time needed to attain suppression)” value stood at 12 min, the “TIME 2 (Shortest time needed for reversal of effect by washing out of compound)” value stood at 20 min and the “DEGREE OF SUPPRESSION” value is reported as “complete”.

For the origin of these results see patent EP0312245A2, “Polycyclic compounds and pharmaceutical compositions thereof” (NORISTAN HOLDINGS LIMITED, priority 1987, dated 1989).
